According to US4672054A, “Process for the preparation of angiotensin-II analogues substituted in the 1-, 5- and 8- positions” (Richter Gedeon Vegyeszeti Gyar Rt., priority 1984, dated 1987):
Like-named read-outs stand apart in the source and are kept apart here. Where a SMILES comes first, the peptide text is derived from it. [ ]: non-standard residue; d: D form. The star is where a group is joined. Gly(cPent) = N[C@H](C(=O)O)C1CCCC1; Chg = N[C@H](C(=O)O)C1CCCCC1; Lac = C[C@H](O)C(=O)O; Glycolyl = O=C(CO)*; Sar = CNCC(=O)O

Key:
[1] = test system: aldosterone production; format: cell-based
Description: (§1) The octapeptides of the formula (I) are purified in a manner known per se, preferably by cellulose ion exchange chromatography. As a result, compounds are generally obtained as lyophilized powders, which can be converted into the corresponding acid addition salts or complexes. The inhibiting effect of the compounds of the formula (I) on the aldosterone production and vasoconstriction was tested in in vitro experiments.

[2] = test system: isolated rabbit aorta vessel preparate; format: cell-based
Description: as §1
In the latter test the inhibition of vasoconstriction induced by AII is measured on isolated rabbit aorta vessel preparate [J. Pharmacol. Exp. Ther., 108, 129 (1953)].

[3] = test system: awake rats; test: hypotensive activity in vivo on awake rats (modified method by Pals), AII challenge; parameters: species or system rat; details: peptide 1 mg/kg subcutaneously, 1.0 μg/kg AII intravenously from the fifth minute over three hours
Description: The hypotensive activity of the new compounds was tested in vivo on awake rats, according to the modified method by Pals [Circ. Res. 29, 664 (1971)].
The results are illustrated in FIG. 1.
At first a dose--effect curve was registered for AII on rats. The peptides were administered subcutaneously, in 1 mg/kg doses. In the fifth minute after administration and repeatedly in the next three hours 1.0 μg/kg of AII was added intravenously. The statistical evalulation was performed by variancy analysis.

[4] = test system: awake rats; test: temporary (initial) hypertensive activity on awake rats; format: in vivo, rat; details: administered into the jugular vein every 20 minutes
Description: The temporary hypertensive activity of the AII analogues was tested also on awake rats. AII analogues were administered into the jugular vein in every 20 minutes. The results were evaluated by variancy analysis. The comparative results obtained on [Sar^1, Chg^5, Lac^8 ]-AII are shown on FIG. 2.

[5] = Eur. J. Clin. Pharm., 23, 7 (1982); cited from earlier work
[6] = test system: aldosterone release; details: Eur. J. Clin. Pharm., 23, 7 (1982); cited from earlier work

Compound: CC(C)[C@H](NC(=O)[C@H](CCCNC(=N)N)NC(=O)CO)C(=O)N[C@@H](Cc1ccc(O)cc1)C(=O)N[C@H](C(=O)N[C@@H](Cc1c[nH]cn1)C(=O)N1CCC[C@H]1C(=O)O[C@@H](C)C(=O)O)C1CCCCC1 [HOAc^1, CHg^5, Lac^8 --AII] (Glycolyl-RVY[Chg]HP[Lac]-OH)
- inhibition of aldosterone production pA2 [1]: 8.614
- vasoconstriction inhibition, pA2 [2]: 9.53

Compound: CC(C)[C@H](NC(=O)[C@H](CCCNC(=N)N)NC(=O)[C@H](C)O)C(=O)N[C@@H](Cc1ccc(O)cc1)C(=O)N[C@H](C(=O)N[C@@H](Cc1c[nH]cn1)C(=O)N1CCC[C@H]1C(=O)O[C@@H](C)C(=O)O)C1CCCC1 [Lac^1, Cpg^5, Lac^8 --AII] (H-[Lac]RVY[Gly(cPent)]HP[Lac]-OH)
- inhibition of aldosterone production pA2 [1]: 8.392
- vasoconstriction inhibition, pA2 [2]: 8.52

Compound: CC[C@H](C)[C@H](NC(=O)[C@@H]1CCCN1C(=O)[C@H](Cc1c[nH]cn1)NC(=O)[C@@H](NC(=O)[C@H](Cc1ccc(O)cc1)NC(=O)[C@@H](NC(=O)[C@H](CCCNC(=N)N)NC(=O)CON)C(C)C)[C@@H](C)CC)C(=O)O [OGly^1, Ile^8 --AII, reference compound]
- inhibition of aldosterone production pA2 [1]: 7.94

Compound: CNCC(=O)N[C@@H](CCCNC(=N)N)C(=O)N[C@H](C(=O)N[C@@H](Cc1ccc(O)cc1)C(=O)N[C@H](C(=O)N[C@@H](Cc1c[nH]cn1)C(=O)N1CCC[C@H]1C(=O)N[C@@H](C)C(=O)O)C1CCCCC1)C(C)C [Sar^1, Chg^5, Ala^8 --AII, Sar^1, Chg^5, Ala^8 -AII]
- inhibition of aldosterone production pA2 [1]: 9.981
- vasoconstriction inhibition, pA2 [2]: 11.18
- duration of hypotensive activity compared with Saralasin (FIG. 1) [3]: signicantly more prolonged hypotensive activity than Saralasin

Compound: CNCC(=O)N[C@@H](CCCN=C(N)N)C(=O)N[C@H](C(=O)N[C@@H](Cc1ccc(O)cc1)C(=O)N[C@H](C(=O)N[C@@H](Cc1c[nH]cn1)C(=O)N1CCC[C@H]1C(=O)O[C@@H](C)C(=O)O)C1CCCCC1)C(C)C [Sar^1, Chg^5, Lac^8 --AII] (H-[Sar]RVY[Chg]HP[Lac]-OH)
- initial hypertensive activity compared with Saralasin (FIG. 2) [4]: significantly lower initial hypertensive activity than Salarasine

Compound: CNCC(=O)N[C@@H](CCCNC(=N)N)C(=O)N[C@H](C(=O)N[C@@H](Cc1ccc(O)cc1)C(=O)N[C@H](C(=O)N[C@@H](Cc1c[nH]cn1)C(=O)N1CCC[C@H]1C(=O)O[C@@H](C)C(=O)O)C1CCCCC1)C(C)C [Sar^1, Chg^5, Lac^8 --AII] (H-[Sar]RVY[Chg]HP[Lac]-OH)
- inhibition of aldosterone production pA2 [1]: 10.390
- vasoconstriction inhibition, pA2 [2]: 11.29

Compound: CNCC(=O)N[C@@H](CCCNC(=N)N)C(=O)N[C@H](C(=O)N[C@@H](Cc1ccc(O)cc1)C(=O)N[C@H](C(=O)N[C@@H](Cc1c[nH]cn1)C(=O)N1CCC[C@H]1C(=O)N[C@@H](C)C(=O)O)C1CCCC1)C(C)C [Sar^1, Cpg^5, Ala^8 --AII]
- inhibition of aldosterone production pA2 [1]: 9.933
- vasoconstriction inhibition, pA2 [2]: 9.42

Compound: CNCC(=O)N[C@@H](CCCNC(=N)N)C(=O)N[C@H](C(=O)N[C@@H](Cc1ccc(O)cc1)C(=O)N[C@H](C(=O)N[C@@H](Cc1c[nH]cn1)C(=O)N1CCC[C@H]1C(=O)O[C@@H](C)C(=O)O)C1CCCC1)C(C)C [Sar^1, Cpg^5, Lac^8 --AII] (H-[Sar]RVY[Gly(cPent)]HP[Lac]-OH)
- inhibition of aldosterone production pA2 [1]: 9.649
- vasoconstriction inhibition, pA2 [2]: 11.09

Compound: CC[C@H](C)[C@H](NC(=O)[C@H](Cc1ccc(O)cc1)NC(=O)[C@@H](NC(=O)[C@H](CCCNC(=N)N)NC(=O)CNC)C(C)C)C(=O)N[C@@H](Cc1c[nH]cn1)C(=O)N1CCC[C@H]1C(=O)N[C@H](C(=O)OC)[C@@H](C)CC [Sar^1, Ile^8 --AII--OMe, reference compound]
- inhibition of aldosterone production pA2 [1]: 8.98

Compound: CC[C@H](C)[C@H](NC(=O)[C@H](Cc1ccc(O)cc1)NC(=O)[C@@H](NC(=O)[C@H](CCCNC(=N)N)NC(=O)CNC)C(C)C)C(=O)N[C@@H](Cc1c[nH]cn1)C(=O)N1CCC[C@H]1C(=O)O[C@@H](C)C(=O)O [Sar^1, Lac^8 --AII, reference compound]
- inhibition of aldosterone production pA2 [1]: 9.649
- vasoconstriction inhibition, pA2 [2]: 11.02

Compound: CCOC(=O)[C@H](C)OC(=O)[C@@H]1CCCN1C(=O)[C@H](Cc1c[nH]cn1)NC(=O)[C@@H](NC(=O)[C@H](Cc1ccc(O)cc1)NC(=O)[C@@H](NC(=O)[C@H](CCCNC(=N)N)NC(=O)CNC)C(C)C)[C@@H](C)CC [Sar^1, Lac^8 --AII--OEt, reference compound]
- inhibition of aldosterone production pA2 [1]: 9.27

Compound: CNCC(=O)N[C@@H](CCCN=C(N)N)C(=O)N[C@H](C(=O)N[C@@H](Cc1ccc(O)cc1)C(=O)N[C@H](C(=O)N[C@@H](Cc1cnc[nH]1)C(=O)N1CCC[C@H]1C(=O)N[C@@H](C)C(=O)O)C(C)C)C(C)C [Sar^1, Val^5, Ala^8 --AII, Saralasin, reference compound]
- inhibition of aldosterone production pA2 ([1]; in vitro, pA2): 9.634
- vasoconstriction inhibition, pA2 ([2]; AII-induced vasoconstriction, isolated rabbit aorta, pA2): 11.10

Compound: Sar^1, HMV^8 --AII [reference compound]
- inhibition of aldosterone production pA2 ([1]; in vitro, pA2): 10.589

Compound: [Sar^1, Thr^8 ]-AII
- agonistic activity [5]: small
- aldosterone release inhibiting effect [6]: no aldosterone release inhibiting effect
